The test system of experiment [1] is HEK293. The experiment is described as follows: membrane integrity loss in HEK cells – cell-based, fluorescence, cytotoxicity control for IDE activator project, dose response (AID 588440).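 Further: cytotoxicity by LDH release measuring loss of membrane integrity.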 In kind it is functional. The settings on record: Homo sapiens.
In experiment [2] the target is Luciferin 4-monooxygenase (Photinus pyralis, UniProt P08659). The experiment is described as follows: inhibition of purified Photinus pyralis luciferase – biochemical, luminescence, dose response (AID 1891).
Sequence of Luciferin 4-monooxygenase (P08659 whole entry): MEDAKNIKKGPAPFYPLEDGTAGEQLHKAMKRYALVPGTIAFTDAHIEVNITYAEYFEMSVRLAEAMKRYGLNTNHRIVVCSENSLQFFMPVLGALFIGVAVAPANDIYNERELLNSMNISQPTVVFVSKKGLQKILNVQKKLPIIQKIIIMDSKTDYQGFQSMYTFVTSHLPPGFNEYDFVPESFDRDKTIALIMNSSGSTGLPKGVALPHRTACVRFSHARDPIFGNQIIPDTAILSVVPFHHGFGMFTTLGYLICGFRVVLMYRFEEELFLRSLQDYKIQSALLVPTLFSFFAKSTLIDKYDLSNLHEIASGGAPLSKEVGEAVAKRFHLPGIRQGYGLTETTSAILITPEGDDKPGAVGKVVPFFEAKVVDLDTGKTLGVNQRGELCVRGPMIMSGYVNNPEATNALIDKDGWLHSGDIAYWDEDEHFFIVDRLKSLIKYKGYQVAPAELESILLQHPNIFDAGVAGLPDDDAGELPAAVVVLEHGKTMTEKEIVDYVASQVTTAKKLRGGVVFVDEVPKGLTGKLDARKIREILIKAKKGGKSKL
The target of experiment [3] is T1, Insulin-degrading enzyme (Homo sapiens, UniProt P14735).
T1 sequence (P14735 whole entry): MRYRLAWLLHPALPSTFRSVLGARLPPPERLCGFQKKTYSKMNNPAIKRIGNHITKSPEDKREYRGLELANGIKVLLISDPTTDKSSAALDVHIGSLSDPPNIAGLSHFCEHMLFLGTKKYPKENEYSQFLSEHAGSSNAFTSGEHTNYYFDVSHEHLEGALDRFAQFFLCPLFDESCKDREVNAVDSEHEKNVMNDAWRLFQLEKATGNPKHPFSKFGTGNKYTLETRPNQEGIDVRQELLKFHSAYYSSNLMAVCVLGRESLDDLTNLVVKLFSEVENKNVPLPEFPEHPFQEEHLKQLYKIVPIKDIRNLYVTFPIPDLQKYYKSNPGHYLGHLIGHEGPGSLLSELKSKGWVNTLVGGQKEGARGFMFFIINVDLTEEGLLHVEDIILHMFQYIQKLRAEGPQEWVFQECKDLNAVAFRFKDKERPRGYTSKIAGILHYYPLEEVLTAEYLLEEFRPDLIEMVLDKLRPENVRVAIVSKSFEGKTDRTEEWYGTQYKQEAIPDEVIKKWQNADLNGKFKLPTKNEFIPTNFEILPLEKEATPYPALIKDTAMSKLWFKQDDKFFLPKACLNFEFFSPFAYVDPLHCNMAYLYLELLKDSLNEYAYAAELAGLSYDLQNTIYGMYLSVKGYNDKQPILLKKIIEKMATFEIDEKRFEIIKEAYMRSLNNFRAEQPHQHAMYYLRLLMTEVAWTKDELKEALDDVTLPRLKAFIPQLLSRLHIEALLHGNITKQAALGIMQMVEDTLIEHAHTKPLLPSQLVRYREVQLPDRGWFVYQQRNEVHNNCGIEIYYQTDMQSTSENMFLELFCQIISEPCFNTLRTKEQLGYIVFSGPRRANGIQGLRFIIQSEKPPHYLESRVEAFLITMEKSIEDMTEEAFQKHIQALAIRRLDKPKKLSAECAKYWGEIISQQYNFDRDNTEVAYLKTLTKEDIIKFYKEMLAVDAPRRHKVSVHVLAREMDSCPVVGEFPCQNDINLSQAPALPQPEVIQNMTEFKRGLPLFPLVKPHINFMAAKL
The experiment is described as follows: recombinant IDE activation, cell-free – biochemical, fluorescence polarization, counter-screen for IDE activator project, dose response (AID 588681). (In fluorescence polarisation assays a small probe gives low polarisation when free and higher when bound to something large.)

The nature of experiment [4]: THP-1 cell cytotoxicity, dose response, cytotoxicity control for non-replicating M. tuberculosis project (AID 489025). Format: functional.
The nature of experiment [5]: viability loss in HEK293 cells – cell-based, plate reader, cherry-picked samples, cytotoxicity control, dose response (AID 743446). In kind it is functional.
The target in experiment [6] is T1, Insulin-degrading enzyme. Nature of the experiment: cellular IDE activation of Abeta substrate cleavage – fluorescence polarization, HEK cells, dose response (AID 588439). Format: functional, cell-based.
For experiment [7], the target named is Heat shock protein HSP 90-alpha (Homo sapiens, UniProt P07900). Format: functional, organism-based.
Experiment [8] is described as follows: fluconazole-exposed Candida albicans growth modulators – fluorescence, retest, confirmation (AID 2467). Format: functional, cell-based.
The nature of experiment [9]: toxicity toward HepG2 liver cells – cell-based, plate reader, cherry-pick, antagonist series, cytotoxicity control, dose response (AID 743416). In kind it is functional.
A short description of experiment [10]: general cell-killing toxicity readout – plate reader, dry powder samples, cytotoxicity control for PAX8 inhibitor project, dose response (AID 743021). Format: functional, cell-based.
Experiment [11] is described as follows: HepG2 cell cytotoxicity, dose response, cytotoxicity control for non-replicating M. tuberculosis project (AID 489018). The settings on record: Mycobacterium tuberculosis. In kind it is functional.
Another experiment addresses Paired box protein Pax-8 (Homo sapiens, UniProt Q06710). The experiment is described as follows: PAX8 transcriptional activity inhibition in RMG-I – RMG-I cells, luciferase, cherry-pick, dose response (AID 687027).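 Further: luciferase reporter driven by Pax8 target thyroperoxidase promoter measured by SteadyGlo luminescence.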 In kind it is functional, cell-based.
Experiment [12] concerns BJ. The experiment is described as follows: BJ-TERT-LT-ST fibroblast viability loss – cell-based, RAS-independent, luminescence, dose response (AID 1935).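 Further: BJ fibroblasts immortalized with TERT plus LT and ST oncogenes.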 Format: functional. The settings on record: Homo sapiens.
In experiment [13] the test system is HEK293. Nature of the experiment: optical interference in Abeta FP readout, dose response, artefact control for IDE activator project, biochemical, fluorescence polarization (AID 588442). Format: functional, cell-based. The settings on record: Homo sapiens.
Experiment [14] in a line: Luminescence Cell-Based Dose Confirmation HTS to Identify Inhibitors of Platelet Dense Granule Release. [Related pubchem assays: 1663 (Primary HTS), 1678 (Summary of Project)]. In kind it is functional.
In experiment [15] the test system is BJ. The experiment is described as follows: cells. In kind it is functional, cell-based. The settings on record: Homo sapiens.
Experiment [16] is described as follows: A549 cell cytotoxicity, dose response, cytotoxicity control, plate reader, cherry-pick, antagonist series (AID 743412). Format: functional, cell-based.
Experiment [17] can be described thus: NIH-3T3 fibroblast cytotoxicity, dose response, cytotoxicity control, cell-based, fluorescence, Alamar Blue, secondary assay (AID 2327).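 Further: NIH-3T3 mouse fibroblasts cultured with fluconazole at 8 µg/mL.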 In kind it is functional. A general note: Alamar Blue is a resazurin reagent that responds to reducing activity.
For experiment [18], the system named is BJ. Nature of the experiment: BJ-TERT fibroblast viability loss – cell-based, RAS-independent, luminescence, dose response (AID 1933). In kind it is functional. The settings on record: Homo sapiens.
A short description of experiment [19]: DRD fibroblast viability loss – cell-based, non-viral oncogenic, luminescence, dose response (AID 1934). The settings on record: Homo sapiens. In kind it is functional.
The nature of experiment [20]: blockade of melanocortin 4 receptor signaling – cell-based, plate reader, cherry pick, counter-screen for LGR2 antagonist project, dose response (AID 743444).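 Further: transfected HEK 293 cells stimulated with alpha-MSH peptide; potency of inhibitors of the alpha-MSH evoked signal.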 In kind it is functional.
Experiment [21] is described as follows: blockers of bursicon-stimulated LGR2 cAMP reporter – cell-based, HEK293, CRE-luciferase reporter, cherry pick, set 2, dose response (AID 743343).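 Further: transfected cells were stimulated with diluted bursicon conditioned medium after compound addition.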 Format: functional.
Experiment [22] can be described thus: Vero E6 cell cytotoxicity, dose response, cytotoxicity control for non-replicating M. tuberculosis project, secondary assay (AID 492998). The settings on record: Vero C1008. Format: functional, VeroE6.
Experiment [23] has as its system Vero. Nature of the experiment: mammalian cell viability reduction – secondary assay, cytotoxicity control for West Nile virus antiviral project, dose response (AID 1650). In kind it is functional. The settings on record: Chlorocebus sabaeus.
The nature of experiment [24]: viability loss in THP-1 monocytes – THP-1 cells, cytotoxicity control for Vif-APOBEC3G degradation inhibitor project, dose response (AID 1117359). In kind it is functional. The settings on record: THP-1.
Experiment [25] in a line: NIH3T3 cell viability loss – ATP luminescence, mouse fibroblasts, counter-screen, dose response (AID 2010).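 Further: cells exposed to compound for about 90 hours before reading.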 In kind it is functional, cell-based. A general note: Counterscreens check selectivity or assay interference.
In experiment [26] the test system is Vero. Nature of the experiment: cells. Format: functional. The settings on record: Chlorocebus sabaeus.
A short description of experiment [27]: Luminescence Cell-Based Dose Confirmation HTS to Identify Activators of 5'UTR Stem-Loop Driven Alpha-Synuclein mRNA Translation in H4 Neuroglioblastoma Cells. [Related pubchem assays: 1829 (Project Summary), 1814 (Primary HTS)]. Format: functional.
The next experiment relates to H4. The experiment is described as follows: Luminescence Cell-Based Dose Response HTS to Identify Activators of 5'UTR Stem-Loop Driven Prion Protein mRNA Translation in H4 Neuroglioblastoma Cells. [Related pubchem assays: 1829 (Project Summary), 1814 (Primary HTS)]. Format: functional. The settings on record: Homo sapiens.
Experiment [28] in a line: Trypanosoma cruzi growth suppression in host cells – NIH3T3 host cells, beta-gal luminescence, confirmation (AID 2044).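 Further: intracellular parasites grown in NIH/3T3 mouse fibroblasts as host cells; luminescent beta-galactosidase reporter signal from transgenic T. cruzi replicating inside host cells; inhibitors lower the luminescence signal.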 Format: functional, cell-based.
Experiment [29] is described as follows: Luminescence Cell-Based Dose Response HTS to Identify Activators of Luciferase Translation or Activity in H4 […] Cells. [Related pubchem assays: 1829 (Project Summary), 1814 (Primary HTS)]. In kind it is functional.

Calls of active or inactive are those of the source.

Sequence of Paired box protein Pax-8 (Q06710 whole entry): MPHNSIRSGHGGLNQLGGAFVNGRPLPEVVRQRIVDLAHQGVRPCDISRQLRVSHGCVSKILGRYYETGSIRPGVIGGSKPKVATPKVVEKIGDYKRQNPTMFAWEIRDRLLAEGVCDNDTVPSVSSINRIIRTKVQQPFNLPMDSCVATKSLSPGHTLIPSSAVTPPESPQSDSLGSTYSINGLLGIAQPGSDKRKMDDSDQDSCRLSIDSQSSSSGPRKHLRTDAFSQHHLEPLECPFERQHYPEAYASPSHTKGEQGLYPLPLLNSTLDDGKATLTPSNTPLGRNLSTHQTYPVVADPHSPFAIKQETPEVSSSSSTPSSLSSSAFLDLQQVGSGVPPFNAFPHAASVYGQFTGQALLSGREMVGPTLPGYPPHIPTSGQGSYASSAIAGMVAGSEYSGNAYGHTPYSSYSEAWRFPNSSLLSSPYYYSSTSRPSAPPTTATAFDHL

What is called IC50 is the concentration that inhibits the measured activity by half. For orientation: EC50 means the concentration that produces a half-maximal response. What is called CC50 is the concentration that lowers cell viability or growth by half. A word on the AC50: it is the midpoint of the concentration-response curve, whichever way the signal moves. For `COc1ccc(NC(=O)c2cc([N+](=O)[O-])ccc2O)cc1`, the IC50 with HEK293 [1] is > 89.1 µM (inactive). The EC50 in experiment [2] is 0.129 µM (active); on Insulin-degrading enzyme [3] it was > 54.7 µM (inactive); at Insulin-degrading enzyme [6] it was > 54.7 µM (inactive); in experiment [8], 1.27 µM (active); in the experiment on BJ [12], > 150 µM (inconclusive); in the experiment with HEK293 [13] it was > 54.7 µM (inactive). Besides, the half-maximal effective concentration (EC50) was 2.15 µM (active) in experiment [14]; 5.17 µM (active) with BJ [15]; 11.6 µM (active) in experiment [17]; 9.48 µM (active) in the experiment with BJ [18]; 6.2 µM (active) in [19]. In addition, the values for the CC50 in [4], in experiment [11] and in experiment [22] were 26.5 µM (active), > 20 µM (active) and > 20 µM (active), respectively. The AC50 in experiment [5] is 6.28 µM (active); in [7], 3.37 µM (active); in experiment [9], 9.22 µM (active); in [10], 12.4 µM (active); at Paired box protein Pax-8 it was 5.39 µM (active); in experiment [16] it was 11.9 µM (active). Also, the AC50 in experiment [20] is 0.739 µM (active); in experiment [21] it was 0.784 µM (active).

Regarding `COC1CC(OC2CCC3(C)C(CCC4C3CCC3(C)C(C5=CC(=O)OC5)C(OC(C)=O)CC43O)C2)OC(C)C1OC1OC(COC2OC(CO)C(O)C(O)C2O)C(O)C(O)C1O` (configuration not stated), the CC50 with Vero [23] was 4.14 µM (active).

For `CNc1ccc(Br)cc(C(=O)/C=C/c2cccc(OC)c2OC)c1=O`, the CC50 in experiment [24] was > 40 µM (active).

As for `O=C(NN(c1ccccc1)c1ccccc1)c1ccc([N+](=O)[O-])o1`, the EC50 in [25] is > 60 µM (not active); in experiment [27], 44.6 µM (active); in the experiment with H4, > 120 µM (not active); in [28] it was < 0.1 µM (active); in experiment [29], > 120 µM (not active); in “cells” it was 0.14 µM (active). For the same compound, the CC50 with Vero [26] is 17.4 µM (active).

Turning to `COc1ccc(CN2CCCC(N3CCN(c4cccc(Cl)c4)CC3)C2)cc1OC` (configuration not stated), the EC50 is > 60 µM (not active) in [25], < 0.1 µM (active) in [28] and 0.038 µM (active) in “cells”.

`CC(C)N1C(=O)/C(=C/c2nc3ccccc3c(=O)n2-c2ccccc2)c2ccccc21`: the CC50 with Vero [23] was 27.3 µM (active). Besides, the EC50 in experiment [28] is 0.997 µM (active).

The values above are taken from ChEMBL document CHEMBL1201862, “PubChem BioAssay data set” (2004).
